Laboratory results published in patent US20130197043A1, “USE OF THE FETAL REPROGRAMMING OF A PPAR AGONIST” (SNU R&DB FOUNDATION, priority 2010, published 2013).

Experiments:
[1] = test system: mice subjected to fetal reprogramming; experiment: Treadmill endurance test of mice subjected to fetal reprogramming; format: in vivo; details: for running distance / running distance increase versus control / running time / running time increase versus control: maternal 10 mg/kg, gestation and lactation; for Increase Rate (Administration Group/Control Group), Distance / Increase Rate (Administration Group/Control Group), Time: 10 mg/kg/day; for muscle colour after skin removal versus control: fetal reprogramming, 10 mg/kg/day oral
Method: Before the experiment, mice were exercised for 5 minutes at a speed of 7 meters/min for two days so as to be adapted to exercising equipment. On day 3, the main experiment was conducted. As for the method for experiment, the mice were made to run at a speed of 10 meter/min for 60 minutes, and after that, the speed was increased at 1 meter/min once every 15 minutes until the maximum speed reaches 15 meters/min. As for the male mice, the running time was increased by 2.9 fold ([…], P<0.0001, n=6) and the running distance was increased by 3.0 fold (9927±1168 versus 3303±394 m, P<0.0001) in the PPAR δ agonist (CMDD1111)-administered mouse group than the control mouse group.
The Experiment using pregnant C57BL/6 mice was conducted in order to verify an endurance enhancement effect by fetal reprogramming of CMDD1226. […]
The experiment for verifying the fetal reprogramming effect of GW501516 and determining the optimum administration period thereof was conducted. The experiment method was shown in FIG. 1, and the experiment was conducted with respect to three kinds of administration periods (gestation period, lactation period, and both of gestation and lactation periods). As the experiment result, the group administered with PPAR δ agonist only during the gestation period had 2.6-fold and 3.2-fold increases in the running time and the running distance, respectively, and the group administered with PPAR δ agonist only during the lactation period had 2.4-fold and 3.0-fold increases in the running time and the running distance, respectively, as compared with the control group. The group administered with PPAR δ agonist during both the gestation and lactation periods had the most obvious increase in endurance, and had 5.1-fold and 6.6-fold increases as compared with the control group (FIG. 22).
The animal test was conducted in order to verify the muscle endurance enhancement and muscular function improvement effects of the material according to the present invention. […] […] The test using a treadmill was conducted in order to confirm the effect of this muscular fiber change on muscle endurance enhancement and muscular function improvement.

[2] = test system: mice subjected to fetal reprogramming; experiment: Morris water maze test of fetal-reprogrammed mice; format: in vivo; details: for Morris water maze test: average time required to find the platform: 8-week old, maternal 10 mg/kg/day gestation and lactation; for Morris water maze test time: mother 10 mg/kg/day oral during the fetal reprogramming period
Method: An animal experiment was conducted in order to verify a memory improvement effect of the mice subjected to fetal reprogramming by PPAR δ agonist. Pregnant mice were orally administered with PPAR δ agonist, CMDD1111, at a concentration of 10 mg/kg/day during the gestation and lactation periods in order to verify effects of the invented material at the brain formation stage. When the fetus became an 8-week old adult, the Morris water maze test was conducted to compare memory between the control group and the administration group. This test can check special learning and memory, and is a task that is mainly dependent on the hippocampus in the brain. As the experiment result, the average times required to find the flatform were 26 seconds and 22 seconds (male and female, respectively) for the control group and were 9 seconds and […] (male and female, respectively) for the administration group. Therefore, it was verified that the PPAR δ agonist improved memory during the fetal programming period, and this effect was maintained until the adulthood.
The animal test was conducted in order to verify the memory improvement effect of the material according to the present invention. Compounds 5 and 9, which are the developed materials, were orally administered to the mother at a concentration of 10 mg/kg/day during the fetal reprogramming period. The Morris water maze test was used to confirm the difference in brain function between the control group and the administered group.

[3] = test system: mice with high-fat-induced diabetes; experiment: Glucose tolerance test (GTT) in mice with high-fat-induced diabetes; format: in vivo; details: 10 mg/Kg/day over 70 days; glucose 1.5 g/kg
Method: The glucose tolerance test (GTT) was conducted in order to verify the diabetes improvement effect of the material according to the present invention. Glucose (1.5 g/kg) was abdominally administer to mice with high-fat-induced diabetes, which was orally administered with medicine over 70 days, and then the blood glucose level change was measured for 2 hours. […] In contrast, the mouse control group administered with the vehicle […] normal blood glucose level even after 120 minutes.

hPPARg = molecular target: T1, hPPARg (Homo sapiens, UniProt P37231); experiment: Transfection assay in CV-1 cells, hPPARg; format: cell-based; details: luciferase reporter
T1 construct: expressed in transfected cells; host or cells: CV-1 cells
T1 sequence (P37231 1-505): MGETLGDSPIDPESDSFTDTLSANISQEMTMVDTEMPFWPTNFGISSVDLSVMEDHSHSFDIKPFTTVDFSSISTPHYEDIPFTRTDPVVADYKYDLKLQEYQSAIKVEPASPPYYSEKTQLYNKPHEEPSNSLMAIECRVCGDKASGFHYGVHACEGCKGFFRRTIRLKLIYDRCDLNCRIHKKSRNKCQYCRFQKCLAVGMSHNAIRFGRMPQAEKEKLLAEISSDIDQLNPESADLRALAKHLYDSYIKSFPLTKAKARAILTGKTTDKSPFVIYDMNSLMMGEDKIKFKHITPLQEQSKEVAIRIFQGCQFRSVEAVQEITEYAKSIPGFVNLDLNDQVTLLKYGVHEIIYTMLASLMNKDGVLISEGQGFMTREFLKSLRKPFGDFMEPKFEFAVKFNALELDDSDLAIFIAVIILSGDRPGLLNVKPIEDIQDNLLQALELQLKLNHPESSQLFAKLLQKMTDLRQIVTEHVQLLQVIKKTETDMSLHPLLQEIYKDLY
Method: This assay was conducted by using CV-1 cells. The cells were cultured on a 96-well plate with a DMEM medium containing 10% FBS, DBS (delipidated), and 1% penicillin/streptomycin in 37° C. of an incubator 5% of carbon dioxide. Test was conducted in four stages of cell inoculation, transfection, treatment with the developed material, and result confirmation. The CV-1 cells were inoculated on the 96-well plate at a cell density at 5,000 cells/well, and after 24 hours, transfection was performed. PPARs plasmid DNA, reporter DNA, and β-galactosidase DNA were mixed with a transfection reagent, and then used to treat the cells. The developed material was dissolved in dimethylsulfoxide (DMSO), and then was used to treat the cells by using media at various concentrations. After 24 hours of culturing in an incubator, the cells were lysed with a lysis buffer and luciferase activity and β-galactosidase activity were measured using a luminometer and a microplate reader. The measured luciferase value was calibrated with the β-galactosidase value, and this value was depicted on a graph and EC50 was determined.

ApoE−/− mice = experiment: Arteriosclerosis prevention and treatment, en face analysis of arteries; format: in vivo; details: 14 weeks feedstuff, dosed over the last 4 weeks
Method: The in vivo test using ApoE−/− mice was conducted in order to verify the arteriosclerosis prevention and treatment effect of Compounds 5 and 9, the developed materials of the present invention. ApoE−/− mice, as an arteriosclerosis disease model, were fed with […] feedstuff (21% high fat and 1.25% high cholesterol feedstuff) over 14 weeks, to thereby induce arteriosclerosis, and then Compounds 5 and 9 were administered to the mice over the last 4 weeks. The medicine treatment manner was adopted. Arteries of the mice were resected, and then analyzed by the en face method. As the result, it was confirmed that Compounds 5 and 9 had 23% and 18% decreases in occurrence of arteriosclerosis, respectively.

Row | EC50 hPPARg (hPPARg) | SMILES | blood glucose level change between 20 and 40 minutes versus control [3] | complete glucose clearance after [3] [min] | Increase Rate (Administration Group/Control Group), Distance ([1]; Gestation + Lactation Periods) [fold] | Increase Rate (Administration Group/Control Group), Time ([1]; Gestation + Lactation Periods) [fold] | Increase Rate (Administration Group/Control Group), Distance ([1]; Gestation Period) [fold] | Increase Rate (Administration Group/Control Group), Time ([1]; Gestation Period) [fold] | Increase Rate (Administration Group/Control Group), Distance ([1]; Lactation Period) [fold] | Increase Rate (Administration Group/Control Group), Time ([1]; Lactation Period) [fold] | muscle colour after skin removal versus control [1] | Morris water maze test time [2] [s] | decrease in occurrence of arteriosclerosis (ApoE−/− mice) [%] | also measured
1 | – | Cc1cc(SC(Cc2ccccc2)c2sc(-c3ccc(C(F)(F)F)cc3)nc2C)ccc1OCC(=O)O (stereo not shown) [CMDD1111] | – | – | – | – | – | – | – | – | – | – | – | running distance ([1]; female mice): 11194±261 m; running distance increase versus control ([1]; female mice): 2.1 fold; running time ([1]; female mice): 761 ± 17 min; running time increase versus control ([1]; female mice): 2.0 fold; running distance ([1]; male mice): 9927±1168 m; running distance increase versus control ([1]; male mice): 3.0 fold; running time ([1]; male mice): 677 ± 78 min; running time increase versus control ([1]; male mice): 2.9 fold; Morris water maze test: average time required to find the platform ([2]; female): 6 s; Morris water maze test: average time required to find the platform ([2]; male): 9 s
2 | ia | Cc1cc(SC(Cc2ccc(-c3ccccc3)cc2)c2sc(-c3ccc(C(F)(F)F)cc3)nc2C)ccc1OCC(=O)O (stereo not shown) [Compound 5] | rapid decrease | 100 | 3.9 | 3.6 | 2.5 | 2.4 | 2.2 | 2.1 | redder than the control group | 8.2 | 23 | –
3 | ia | Cc1cc(SC(Cc2ccc(-c3ccc(F)cc3)cc2)c2sc(-c3ccc(C(F)(F)F)cc3)nc2C)ccc1OCC(=O)O (stereo not shown) [Compound 9] | rapid decrease | 100 | 3.0 | 2.8 | 1.9 | 1.9 | 1.5 | 1.5 | redder than the control group | 9.7 | 18 | –
